Counter-ions that a name gives are not always drawn.
Legend:
[1] = target: T1, cardiac Na+ channel, hNav1.5 (Homo sapiens, UniProt Q14524); test: hNav1.5 IonWorks electrophysiology in CHO cells; format: cell-based; conditions: IonWorks Quattro, 3 Hz, room temperature
T1 construct: expressed in transfected cells; host or cells: Chinese hamster ovary K1 (CHO) cells
Protocol: The hNav1.5-expressing Chinese hamster ovary K1 (CHO) cells used has been described previously (Persson, F. et al, (2005), Journal of Cardiovascular Electrophysiology, 16, 329-341). These cells were grown to semi-confluence at 37° C. in a humidified environment (5% CO2) in F-12 Ham medium containing Glutamax™, 10% foetal calf serum and 1 mg/ml G418 (all Invitrogen). Prior to use, the monolayer was washed using a pre-warmed (37° C.) 3 ml aliquot of Versene 1:5000 (Invitrogen). After aspiration of this solution the flask was incubated at 37° C. with a further 3 ml of Versene 1:5000 for a period of 6 min. […] A 0.5 ml aliquot of cell suspension was removed and the number of viable cells (based on trypan blue exclusion) was determined in an automated cell counter (Cedex; Innovatis) so that the cell re-suspension volume could be adjusted with PBS to give the desired final cell concentration. […]
Pre- and post-scan hNav1.5 current amplitude was measured from the leak-subtracted traces by the IonWorks™ software by taking the average current during the end of the depolarising pulse to 0 mV (baseline current) and subtracting this from the peak inward current. […]

[2] = target: CHK2 (checkpoint kinase 2) (Homo sapiens, UniProt O96017); test: Inhibitory activity against CHK2; format: biochemical
Chain of CHK2 (checkpoint kinase 2) (O96017 whole entry, species assumed): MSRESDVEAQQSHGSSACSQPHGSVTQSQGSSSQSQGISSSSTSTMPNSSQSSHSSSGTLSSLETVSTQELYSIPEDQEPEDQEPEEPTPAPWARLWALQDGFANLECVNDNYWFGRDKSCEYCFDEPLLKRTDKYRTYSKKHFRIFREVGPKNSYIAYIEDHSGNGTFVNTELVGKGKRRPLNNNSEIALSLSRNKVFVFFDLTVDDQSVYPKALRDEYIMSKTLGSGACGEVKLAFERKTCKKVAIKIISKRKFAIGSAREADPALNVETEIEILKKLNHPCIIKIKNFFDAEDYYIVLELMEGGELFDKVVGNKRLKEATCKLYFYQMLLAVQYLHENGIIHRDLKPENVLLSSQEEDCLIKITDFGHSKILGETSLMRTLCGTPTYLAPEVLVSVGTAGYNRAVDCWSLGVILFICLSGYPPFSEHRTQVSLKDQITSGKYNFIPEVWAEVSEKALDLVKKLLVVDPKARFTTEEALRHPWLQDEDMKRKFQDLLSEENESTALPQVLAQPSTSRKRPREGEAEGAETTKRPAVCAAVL

T1 sequence (Q14524 whole entry): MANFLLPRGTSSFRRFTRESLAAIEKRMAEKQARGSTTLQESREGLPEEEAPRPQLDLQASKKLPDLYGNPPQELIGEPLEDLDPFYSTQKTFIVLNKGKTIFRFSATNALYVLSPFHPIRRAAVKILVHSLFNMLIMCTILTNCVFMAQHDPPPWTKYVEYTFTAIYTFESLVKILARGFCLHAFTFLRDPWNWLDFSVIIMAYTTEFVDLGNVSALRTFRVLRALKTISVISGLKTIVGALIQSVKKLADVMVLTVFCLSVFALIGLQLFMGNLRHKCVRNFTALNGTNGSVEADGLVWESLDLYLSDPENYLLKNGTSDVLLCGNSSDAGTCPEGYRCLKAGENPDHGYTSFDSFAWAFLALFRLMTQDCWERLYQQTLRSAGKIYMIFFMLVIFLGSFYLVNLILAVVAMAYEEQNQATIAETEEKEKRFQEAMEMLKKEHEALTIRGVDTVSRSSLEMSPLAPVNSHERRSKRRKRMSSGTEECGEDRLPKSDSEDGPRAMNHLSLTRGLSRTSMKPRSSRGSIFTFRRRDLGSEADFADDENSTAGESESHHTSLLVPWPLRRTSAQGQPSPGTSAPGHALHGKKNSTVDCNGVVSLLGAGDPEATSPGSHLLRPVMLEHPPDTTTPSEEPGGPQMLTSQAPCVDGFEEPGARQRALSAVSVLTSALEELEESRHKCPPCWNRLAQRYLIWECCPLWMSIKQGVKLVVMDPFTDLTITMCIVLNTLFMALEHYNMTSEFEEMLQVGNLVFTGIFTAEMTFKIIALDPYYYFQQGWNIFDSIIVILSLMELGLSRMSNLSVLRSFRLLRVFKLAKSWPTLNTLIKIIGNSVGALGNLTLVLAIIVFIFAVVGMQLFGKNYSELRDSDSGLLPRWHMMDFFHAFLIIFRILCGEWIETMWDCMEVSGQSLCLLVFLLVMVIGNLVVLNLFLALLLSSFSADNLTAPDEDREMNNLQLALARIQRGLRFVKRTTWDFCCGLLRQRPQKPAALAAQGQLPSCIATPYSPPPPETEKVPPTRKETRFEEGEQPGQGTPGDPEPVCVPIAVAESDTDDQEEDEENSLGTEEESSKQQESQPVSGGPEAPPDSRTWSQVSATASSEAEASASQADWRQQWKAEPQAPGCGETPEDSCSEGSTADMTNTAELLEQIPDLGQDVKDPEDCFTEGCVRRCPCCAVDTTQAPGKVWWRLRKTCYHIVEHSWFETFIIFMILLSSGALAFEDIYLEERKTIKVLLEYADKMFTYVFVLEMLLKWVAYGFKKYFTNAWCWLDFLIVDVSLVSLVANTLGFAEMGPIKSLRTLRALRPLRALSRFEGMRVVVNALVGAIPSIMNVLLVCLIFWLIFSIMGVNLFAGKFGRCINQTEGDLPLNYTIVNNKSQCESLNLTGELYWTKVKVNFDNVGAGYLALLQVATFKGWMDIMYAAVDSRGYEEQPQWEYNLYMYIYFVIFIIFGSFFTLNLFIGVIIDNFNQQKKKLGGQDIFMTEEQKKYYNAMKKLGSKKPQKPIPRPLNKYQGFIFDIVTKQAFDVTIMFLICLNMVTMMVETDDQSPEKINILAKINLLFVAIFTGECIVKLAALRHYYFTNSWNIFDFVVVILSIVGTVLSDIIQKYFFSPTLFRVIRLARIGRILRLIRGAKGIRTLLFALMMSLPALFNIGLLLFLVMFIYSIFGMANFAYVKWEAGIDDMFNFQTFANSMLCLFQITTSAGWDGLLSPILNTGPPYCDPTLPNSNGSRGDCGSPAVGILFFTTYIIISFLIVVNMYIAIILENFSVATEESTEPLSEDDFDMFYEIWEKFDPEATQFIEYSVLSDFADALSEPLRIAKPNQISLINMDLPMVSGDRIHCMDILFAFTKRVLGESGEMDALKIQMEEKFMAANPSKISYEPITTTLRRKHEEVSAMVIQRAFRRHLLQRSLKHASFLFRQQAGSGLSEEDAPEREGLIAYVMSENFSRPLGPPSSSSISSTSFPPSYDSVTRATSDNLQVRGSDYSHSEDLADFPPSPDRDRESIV

With `COCCCNCCCc1ccc(-c2cnc(N)c(C(=O)Nc3cccnc3)n2)cc1` [Example 1, 3-Amino-6-(4-{3-[(3-methoxypropyl)amino]propyl}phenyl)-N-pyridin-3-ylpyrazine-2-carboxamide tri-hydrochloride] the IC50 [1] was 21.2 µM and the “Inhibitory activity against CHK2” value [2] was “inhibitory activity”.

Source: patent US8198285B2, “Pyrazine derivatives” (Astrazeneca AB, priority 2010, dated 2012)
